# Laboratory results: publication PMC9329436, “Optimization of the 4-anilinoquin(az)oline scaffold as epidermal growth factor receptor (EGFR) inhibitors for chordoma utilizing a toxicology profiling assay platform” (Scientific Reports, 2022)
# Read-outs that look alike come from different tables or passages of the source.
# Legend:
# Format in all cases: biochemical
# [1] = target: 320 wild-type protein kinases (Homo sapiens, UniProt Q9NYY3); conditions: kinase SNK, singlicate
# Excerpt: (§1) Table S4. Profiling of two compounds at two concentrations against 320 wild-type protein kinases; singlicate measurement; Residual activities (% of control).
# [2] = tested on: 320 wild-type protein kinases; conditions: singlicate
# Excerpt: as §1
# [3] = target: 320 wild-type protein kinases (Homo sapiens, UniProt P42685); conditions: FRK, singlicate
# Excerpt: as §1
# [4] = target: 320 wild-type protein kinases (Homo sapiens, UniProt P43250); conditions: singlicate
# Excerpt: as §1
# [5] = target: T1, 320 wild-type protein kinases (Homo sapiens, UniProt Q02156); conditions: PKC-epsilon, singlicate
# T1 sequence (Q02156 1-737): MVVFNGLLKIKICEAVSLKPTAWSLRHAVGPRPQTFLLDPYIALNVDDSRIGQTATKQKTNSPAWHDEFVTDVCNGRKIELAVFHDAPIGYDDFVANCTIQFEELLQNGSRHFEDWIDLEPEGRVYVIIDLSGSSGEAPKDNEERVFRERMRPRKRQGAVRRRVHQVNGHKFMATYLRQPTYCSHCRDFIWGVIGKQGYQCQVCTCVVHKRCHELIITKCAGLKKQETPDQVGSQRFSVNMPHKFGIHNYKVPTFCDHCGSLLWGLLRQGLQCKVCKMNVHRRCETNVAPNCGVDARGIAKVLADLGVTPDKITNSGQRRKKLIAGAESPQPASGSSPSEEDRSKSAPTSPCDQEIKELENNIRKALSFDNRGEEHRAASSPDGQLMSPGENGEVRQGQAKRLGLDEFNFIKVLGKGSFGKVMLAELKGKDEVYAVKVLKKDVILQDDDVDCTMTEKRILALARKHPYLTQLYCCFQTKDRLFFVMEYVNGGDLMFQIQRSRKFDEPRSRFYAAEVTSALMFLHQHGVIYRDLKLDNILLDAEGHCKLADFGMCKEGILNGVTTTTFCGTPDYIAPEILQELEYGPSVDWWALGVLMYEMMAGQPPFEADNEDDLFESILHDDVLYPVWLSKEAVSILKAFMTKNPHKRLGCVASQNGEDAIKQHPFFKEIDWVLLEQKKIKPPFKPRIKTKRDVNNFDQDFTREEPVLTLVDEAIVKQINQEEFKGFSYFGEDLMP
# Excerpt: as §1
# [6] = target: 320 wild-type protein kinases (Homo sapiens, UniProt Q9Y243); conditions: singlicate
# Excerpt: as §1
# [7] = target: 320 wild-type protein kinases (Homo sapiens, UniProt Q8N5S9); conditions: singlicate
# Excerpt: as §1
# [8] = target: T2, 320 wild-type protein kinases (Homo sapiens, UniProt P51817); conditions: kinase PRKX, singlicate
# T2 sequence (P51817 1-358): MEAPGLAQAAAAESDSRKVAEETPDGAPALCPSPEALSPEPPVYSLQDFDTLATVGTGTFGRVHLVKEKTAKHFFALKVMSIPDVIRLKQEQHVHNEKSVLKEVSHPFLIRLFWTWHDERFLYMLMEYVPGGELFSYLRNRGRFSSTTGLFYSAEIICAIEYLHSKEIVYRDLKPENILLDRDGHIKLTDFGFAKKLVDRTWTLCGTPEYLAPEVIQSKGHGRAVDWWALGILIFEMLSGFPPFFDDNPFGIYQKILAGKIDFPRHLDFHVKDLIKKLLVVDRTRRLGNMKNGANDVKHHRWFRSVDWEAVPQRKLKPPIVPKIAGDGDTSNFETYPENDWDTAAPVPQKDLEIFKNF
# Excerpt: as §1
# [9] = target: 320 wild-type protein kinases (Homo sapiens, UniProt Q9UBS0); conditions: kinase S6K-beta, singlicate
# Excerpt: as §1
# [10] = target: 320 wild-type protein kinases (Homo sapiens, UniProt P07947); conditions: kinase YES, singlicate
# Excerpt: as §1
# [11] = target: T3, 320 wild-type protein kinases (Homo sapiens, UniProt Q15139); conditions: PKC-mu, singlicate
# T3 sequence (Q15139 1-912): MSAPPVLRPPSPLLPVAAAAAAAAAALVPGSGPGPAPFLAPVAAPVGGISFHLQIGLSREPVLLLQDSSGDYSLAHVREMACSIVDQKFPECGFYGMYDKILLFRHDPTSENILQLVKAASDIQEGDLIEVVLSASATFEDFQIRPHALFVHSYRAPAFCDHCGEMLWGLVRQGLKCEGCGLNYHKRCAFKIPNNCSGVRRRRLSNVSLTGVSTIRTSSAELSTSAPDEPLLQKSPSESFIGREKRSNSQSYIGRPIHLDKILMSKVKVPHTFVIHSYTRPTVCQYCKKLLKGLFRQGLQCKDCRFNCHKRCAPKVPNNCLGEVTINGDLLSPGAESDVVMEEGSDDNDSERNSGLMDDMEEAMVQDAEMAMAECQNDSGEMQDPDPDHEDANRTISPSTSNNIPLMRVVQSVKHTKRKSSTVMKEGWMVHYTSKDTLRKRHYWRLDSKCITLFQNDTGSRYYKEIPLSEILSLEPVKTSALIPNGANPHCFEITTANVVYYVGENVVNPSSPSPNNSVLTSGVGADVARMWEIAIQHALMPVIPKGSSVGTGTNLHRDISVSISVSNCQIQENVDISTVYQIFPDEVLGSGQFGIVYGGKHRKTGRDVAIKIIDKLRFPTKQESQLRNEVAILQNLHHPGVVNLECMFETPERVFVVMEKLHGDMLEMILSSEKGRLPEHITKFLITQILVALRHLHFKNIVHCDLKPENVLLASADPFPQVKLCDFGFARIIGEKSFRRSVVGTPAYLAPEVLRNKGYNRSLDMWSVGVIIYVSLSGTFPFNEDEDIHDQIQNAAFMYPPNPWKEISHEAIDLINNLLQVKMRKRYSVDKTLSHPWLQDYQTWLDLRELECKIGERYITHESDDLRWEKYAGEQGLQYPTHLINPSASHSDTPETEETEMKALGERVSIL
# Excerpt: as §1
# 320 wild-type protein kinases (Homo sapiens, UniProt P07947), sequence (P07947 whole entry): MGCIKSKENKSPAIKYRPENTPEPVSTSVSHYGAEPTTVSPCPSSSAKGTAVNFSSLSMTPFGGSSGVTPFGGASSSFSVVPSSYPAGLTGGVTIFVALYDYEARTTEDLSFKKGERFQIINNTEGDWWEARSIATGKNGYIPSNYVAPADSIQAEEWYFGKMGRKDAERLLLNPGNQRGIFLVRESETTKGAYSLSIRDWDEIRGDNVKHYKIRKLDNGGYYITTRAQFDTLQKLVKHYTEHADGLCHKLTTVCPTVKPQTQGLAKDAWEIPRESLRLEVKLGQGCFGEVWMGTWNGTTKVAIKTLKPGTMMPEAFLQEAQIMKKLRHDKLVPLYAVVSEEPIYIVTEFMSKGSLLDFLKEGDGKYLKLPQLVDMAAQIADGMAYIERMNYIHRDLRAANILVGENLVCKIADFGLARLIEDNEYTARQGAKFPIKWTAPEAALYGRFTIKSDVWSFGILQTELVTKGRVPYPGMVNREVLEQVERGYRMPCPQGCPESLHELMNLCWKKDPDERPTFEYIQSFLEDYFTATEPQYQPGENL
# 320 wild-type protein kinases (Homo sapiens, UniProt Q8N5S9), sequence (Q8N5S9 whole entry): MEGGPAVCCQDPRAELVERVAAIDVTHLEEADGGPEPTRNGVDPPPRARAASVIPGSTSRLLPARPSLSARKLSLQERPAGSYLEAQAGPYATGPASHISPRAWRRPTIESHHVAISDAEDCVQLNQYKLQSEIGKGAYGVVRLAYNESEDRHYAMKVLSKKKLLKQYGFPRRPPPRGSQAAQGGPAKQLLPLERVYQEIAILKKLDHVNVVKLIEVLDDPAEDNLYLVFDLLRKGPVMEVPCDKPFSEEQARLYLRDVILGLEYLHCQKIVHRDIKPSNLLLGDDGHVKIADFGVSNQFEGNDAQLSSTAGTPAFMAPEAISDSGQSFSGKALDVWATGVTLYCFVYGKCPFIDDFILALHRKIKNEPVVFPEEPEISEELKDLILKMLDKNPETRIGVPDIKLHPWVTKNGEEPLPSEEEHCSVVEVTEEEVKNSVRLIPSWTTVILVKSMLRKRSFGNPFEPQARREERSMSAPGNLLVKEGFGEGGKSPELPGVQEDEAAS
# 320 wild-type protein kinases (Homo sapiens, UniProt Q9NYY3), sequence (Q9NYY3 whole entry): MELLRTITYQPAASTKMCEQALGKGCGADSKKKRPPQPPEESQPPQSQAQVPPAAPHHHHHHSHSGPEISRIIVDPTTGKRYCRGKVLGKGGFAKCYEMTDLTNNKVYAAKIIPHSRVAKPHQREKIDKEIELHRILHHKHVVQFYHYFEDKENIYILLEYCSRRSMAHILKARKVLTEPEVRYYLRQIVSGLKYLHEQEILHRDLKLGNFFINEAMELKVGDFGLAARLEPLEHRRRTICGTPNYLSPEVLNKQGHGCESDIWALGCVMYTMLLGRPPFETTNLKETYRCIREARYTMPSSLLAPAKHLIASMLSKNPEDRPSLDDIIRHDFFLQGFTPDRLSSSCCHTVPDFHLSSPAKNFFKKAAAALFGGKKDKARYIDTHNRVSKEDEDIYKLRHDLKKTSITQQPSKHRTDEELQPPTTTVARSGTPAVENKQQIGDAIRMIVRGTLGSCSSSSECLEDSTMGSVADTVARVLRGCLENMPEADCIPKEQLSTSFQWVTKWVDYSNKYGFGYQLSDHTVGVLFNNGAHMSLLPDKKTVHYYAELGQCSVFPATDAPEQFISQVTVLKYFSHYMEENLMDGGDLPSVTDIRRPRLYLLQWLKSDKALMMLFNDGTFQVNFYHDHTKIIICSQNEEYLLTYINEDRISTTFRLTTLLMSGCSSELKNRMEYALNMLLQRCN
# 320 wild-type protein kinases (Homo sapiens, UniProt P42685), sequence (P42685 whole entry): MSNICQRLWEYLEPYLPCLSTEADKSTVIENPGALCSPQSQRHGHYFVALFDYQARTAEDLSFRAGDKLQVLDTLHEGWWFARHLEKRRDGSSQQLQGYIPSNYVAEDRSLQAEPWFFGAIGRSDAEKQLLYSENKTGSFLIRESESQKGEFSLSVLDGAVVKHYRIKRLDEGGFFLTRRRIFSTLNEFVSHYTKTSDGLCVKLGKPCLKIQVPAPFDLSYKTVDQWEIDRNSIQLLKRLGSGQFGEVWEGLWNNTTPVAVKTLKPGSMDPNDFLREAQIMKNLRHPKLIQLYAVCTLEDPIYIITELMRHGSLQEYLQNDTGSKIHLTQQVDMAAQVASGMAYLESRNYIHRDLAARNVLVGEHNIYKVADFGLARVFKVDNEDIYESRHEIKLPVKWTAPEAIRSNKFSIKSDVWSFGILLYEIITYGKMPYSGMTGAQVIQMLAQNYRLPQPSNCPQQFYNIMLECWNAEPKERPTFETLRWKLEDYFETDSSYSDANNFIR
# 320 wild-type protein kinases (Homo sapiens, UniProt P43250), sequence (P43250 whole entry): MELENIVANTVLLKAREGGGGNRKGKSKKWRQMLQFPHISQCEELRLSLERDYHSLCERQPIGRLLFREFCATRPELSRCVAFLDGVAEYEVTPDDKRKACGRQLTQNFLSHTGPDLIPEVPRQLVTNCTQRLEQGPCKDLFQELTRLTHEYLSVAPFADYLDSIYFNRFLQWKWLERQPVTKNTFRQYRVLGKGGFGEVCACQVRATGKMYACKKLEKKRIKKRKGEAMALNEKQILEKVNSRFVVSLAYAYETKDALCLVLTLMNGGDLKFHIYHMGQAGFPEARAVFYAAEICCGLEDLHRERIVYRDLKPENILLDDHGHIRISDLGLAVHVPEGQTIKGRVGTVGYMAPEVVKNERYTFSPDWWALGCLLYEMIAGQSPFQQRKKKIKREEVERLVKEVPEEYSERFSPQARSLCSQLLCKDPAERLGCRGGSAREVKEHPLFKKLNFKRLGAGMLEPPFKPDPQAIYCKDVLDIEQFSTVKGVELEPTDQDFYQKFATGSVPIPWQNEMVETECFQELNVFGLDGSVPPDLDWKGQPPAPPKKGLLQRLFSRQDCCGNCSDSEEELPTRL
# 320 wild-type protein kinases (Homo sapiens, UniProt Q9UBS0), sequence (Q9UBS0 whole entry): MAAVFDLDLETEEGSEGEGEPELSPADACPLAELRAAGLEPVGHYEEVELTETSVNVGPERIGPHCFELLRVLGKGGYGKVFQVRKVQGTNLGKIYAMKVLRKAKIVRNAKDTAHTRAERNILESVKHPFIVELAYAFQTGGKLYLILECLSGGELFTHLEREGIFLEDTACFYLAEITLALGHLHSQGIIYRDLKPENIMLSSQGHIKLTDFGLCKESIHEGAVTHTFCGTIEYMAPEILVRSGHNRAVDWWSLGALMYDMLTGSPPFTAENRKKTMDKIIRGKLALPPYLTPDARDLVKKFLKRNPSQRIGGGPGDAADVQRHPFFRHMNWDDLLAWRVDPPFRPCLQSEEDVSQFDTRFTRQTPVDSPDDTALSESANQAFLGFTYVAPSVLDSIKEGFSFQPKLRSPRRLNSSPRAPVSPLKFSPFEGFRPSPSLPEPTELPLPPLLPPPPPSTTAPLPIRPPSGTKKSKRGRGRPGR
# 320 wild-type protein kinases (Homo sapiens, UniProt Q9Y243), sequence (Q9Y243 whole entry): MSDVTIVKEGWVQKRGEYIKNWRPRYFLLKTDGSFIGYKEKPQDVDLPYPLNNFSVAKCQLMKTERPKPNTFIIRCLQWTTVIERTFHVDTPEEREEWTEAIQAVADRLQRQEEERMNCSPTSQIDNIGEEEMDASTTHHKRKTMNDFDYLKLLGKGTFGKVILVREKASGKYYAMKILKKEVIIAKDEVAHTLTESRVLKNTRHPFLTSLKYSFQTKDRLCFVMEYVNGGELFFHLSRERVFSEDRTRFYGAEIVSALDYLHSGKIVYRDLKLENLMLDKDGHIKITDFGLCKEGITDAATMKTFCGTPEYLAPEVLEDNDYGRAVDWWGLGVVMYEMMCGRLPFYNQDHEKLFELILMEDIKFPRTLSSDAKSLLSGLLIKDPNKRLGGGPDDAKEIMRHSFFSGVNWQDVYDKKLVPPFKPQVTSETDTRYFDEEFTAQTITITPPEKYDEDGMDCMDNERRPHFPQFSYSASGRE
SMILES,"Residual activity, SNK ([1]; assay conc. 1.0E-06 M)","Residual activity, SNK ([1]; assay conc. 1.0E-07 M)","Residual activity ([2]; PKC-beta2, 1.0E-06 M)","Residual activity ([2]; PKC-beta2, 1.0E-07 M)",Residual activity ([3]; 1.0E-06 M),Residual activity ([3]; 1.0E-07 M),"Residual activity ([4]; GRK6, 1.0E-06 M)","Residual activity ([4]; GRK6, 1.0E-07 M)",Residual activity ([5]; 1.0E-06 M),Residual activity ([5]; 1.0E-07 M),"Residual activity ([6]; AKT3 aa106-479, 1.0E-06 M)","Residual activity ([6]; AKT3 aa106-479, 1.0E-07 M)","Residual activity ([7]; CAMKK1, 1.0E-06 M)","Residual activity ([7]; CAMKK1, 1.0E-07 M)","Residual activity, PRKX ([8]; assay conc. 1.0E-06 M)","Residual activity, PRKX ([8]; assay conc. 1.0E-07 M)","Residual activity, S6K-beta ([9]; assay conc. 1.0E-06 M)","Residual activity, S6K-beta ([9]; assay conc. 1.0E-07 M)","Residual activity, YES ([10]; assay conc. 1.0E-06 M)","Residual activity, YES ([10]; assay conc. 1.0E-07 M)",also measured
C#Cc1cc(Nc2ncnc3cc(I)ccc23)ccc1Cl [Compound 41],89 % of control,97 % of control,95 % of control,98 % of control,106 % of control,93 % of control,120 % of control,124 % of control,89 % of control,82 % of control,97 % of control,94 % of control,84 % of control,87 % of control,123 % of control,138 % of control,102 % of control,96 % of control,83 % of control,101 % of control,Residual activity ([11]; 1.0E-06 M): 89 % of control; Residual activity ([11]; 1.0E-07 M): 111 % of control
C#Cc1cc(Nc2ncnc3cc(OC)c(OC)cc23)ccc1Cl [Compound 45],87 % of control,99 % of control,95 % of control,97 % of control,74 % of control,96 % of control,101 % of control,133 % of control,88 % of control,89 % of control,101 % of control,96 % of control,110 % of control,91 % of control,118 % of control,117 % of control,86 % of control,105 % of control,77 % of control,100 % of control,Residual activity ([11]; 1.0E-06 M): 73 % of control; Residual activity ([11]; 1.0E-07 M): 92 % of control
